Like-named read-outs stand apart in the source and are kept apart here.
Tested on: MV-4-11 cells
Experiment: Cell Viability Assay in MV-4-11 Cells
Type: cell-based
Procedure: MV-4-11 cells (ATCC) were seeded into sterile 96-well flat clear bottom white polystyrene TC-treated microplates (Corning) at 7,000 cells/well in 150 μL complete growth medium (Iscove's Modified Dulbecco's Medium (IMDM) (Gibco), 10% Heat Inactivated Fetal Bovine Serum (HyClone), 1% Penicillin-Streptomycin-L-Glutamine (HyClone), 1% GlutaMAX (Gibco)). […] After 72 h incubation, plates were removed from incubators and allowed to equilibrate to room temperature (˜10 min) before adding 50 μL per well Cell-Titer Glo reagent (Promega) using a WellJet (Integra Biosciences) dispenser. Plates were then incubated at room temperature for 2-20 min prior to measurement of luminescence on an Envision (Perkin Elmer) plate reader. Data were normalized to DMSO (100% viability) and analyzed using a non-linear four-parameter curve fit.

[1] = Homo sapiens, MV4-11, 72 h, MV-4-11 cells, 72 h, Cell-Titer Glo, read-out: IC50
[2] = MV-4-11 cells, 72 h, Cell-Titer Glo, read-out: IC50

Row | IC50 [1] | Compound | also measured
1 | 0.42 µM | Cn1cc(-c2ccc(C(=O)N(c3nccc4cc(Cl)ccc34)[C@@H]3CCCNC3)cc2)nn1 [Example 808, (R)—N-(6-chloroisoquinolin-1-yl)-4-(1-methyl-1H-1,2,3-triazol-4-yl)-N-(piperidin-3-yl)benzamide] | –
2 | 0.17 µM | Cc1nnc(-c2ccc(C(=O)N(c3nccc4cc(F)cc(C)c34)[C@@H]3CCCNC3)cn2)o1 [Example 918, N-(6-fluoro-8-methyl-1-isoquinolyl)-6-(5-methyl-1,3,4-oxadiazol-2-yl)-N-[(3R)-3-piperidyl]pyridine-3-carboxamide] | –
3 | 1.8 µM | C=CC(=O)Nc1cccc(-c2cc3c(N(C(=O)c4ccc(-c5cn(C)nn5)cc4F)[C@@H]4CCCNC4)nccc3s2)c1 [Example 532, 2-fluoro-4-(1-methyltriazol-4-yl)-N-[(3R)-3-piperidyl]-N-[2-[3-(prop-2-enoylamino)phenyl]thieno[3,2-c]pyridin-4-yl]benzamide] | –
4 | 0.11 µM | Cc1cccc2ccnc(N(C(=O)c3ccc(Nc4nccc(C5CCOCC5)n4)cc3F)[C@@H]3CCCNC3)c12 [Example 663, (R)-2-fluoro-N-(8-methylisoquinolin-1-yl)-N-(piperidin-3-yl)-4-((4-(tetrahydro-2H-pyran-4-yl)pyrimidin-2-yl)amino)benzamide] | –
5 | 0.87 µM | CN(C)C(=O)c1ccc(-c2cc3c(N(C(=O)c4ccc(-c5cn(C)nn5)cc4F)[C@@H]4CCCNC4)nccc3s2)cc1 [Example 528, (R)—N-(2-(4-(dimethylcarbamoyl)phenyl)thieno[3,2-c]pyridin-4-yl)-2-fluoro-4-(1-methyl-1H-1,2,3-triazol-4-yl)-N-(piperidin-3-yl)benzamide] | –
6 | 2.4 µM | Cc1cccc2ccnc(N(C(=O)c3ccc(N4CCOc5ccccc54)cc3F)[C@@H]3CCCNC3)c12 [Example 645, 4-(2,3-dihydro-1,4-benzoxazin-4-yl)-2-fluoro-N-(8-methyl-1-isoquinolyl)-N-[(3R)-3-piperidyl] benzamide] | –
7 | 0.26 µM | Cn1cc(-c2ccc(C(=O)N(c3nccc4sc(-c5ccccc5)cc34)[C@@H]3CCCNC3)c(F)c2)nn1 [Example 510, 2-fluoro-4-(1-methyltriazol-4-yl)-N-(2-phenylthieno[3,2-c]pyridin-4-yl)-N-[(3R)-3-piperidyl]benzamide] | –
8 | 0.35 µM | Cn1cc(-c2ccc(C(=O)N(c3nccc4sc(-c5ccncc5)cc34)[C@@H]3CCCNC3)c(F)c2)nn1 [Example 363, 2-fluoro-4-(1-methyltriazol-4-yl)-N-[(3R)-3-piperidyl]-N-[2-(4-pyridyl)thieno[3,2-c]pyridin-4-yl]benzamide] | –
9 | – | Cc1csc2ccnc(N(C(=O)c3ccc(Nc4ncccn4)cc3F)[C@@H]3CCCNC3)c12 [Example 931, (R)-2-fluoro-N-(3-methylthieno[3,2-c]pyridin-4-yl)-N-(piperidin-3-yl)-4-(pyrimidin-2-ylamino)benzamide] | IC50 [2]: 0.17 µM
10 | 0.53 µM | Cc1nnc(-c2ccc(C(=O)N(c3nccc4scc(C)c34)[C@@H]3CCCNC3)c(C)c2)s1 [Example 757, 2-methyl-4-(5-methyl-1,3,4-thiadiazol-2-yl)-N-(3-methylthieno[3,2-c]pyridin-4-yl)-N-[(3R)-3-piperidyl]benzamide] | –
11 | 0.58 µM | Cn1cc(-c2ccc(C(=O)N(c3nccc4cc(C#N)ccc34)[C@@H]3CCCNC3)c(F)c2)nn1 [Example 472, (R)—N-(6-cyanoisoquinolin-1-yl)-2-fluoro-4-(1-methyl-1H-1,2,3-triazol-4-yl)-N-(piperidin-3-yl)benzamide] | –
12 | 0.25 µM | O=C(c1ccc(-n2nnc3cccnc32)cc1F)N(c1nccc2cc(-c3cccnc3)ccc12)[C@@H]1CCCNC1 [Example 367, (R)-4-(3H-[1,2,3]triazolo[4,5-b]pyridin-3-yl)-2-fluoro-N-(piperidin-3-yl)-N-(6-(pyridin-3-yl)isoquinolin-1-yl)benzamide] | –
13 | 0.18 µM | Cc1cccc2ccnc(N(C(=O)c3ccc(Nc4nccc(N5CCNCC5)n4)cc3F)[C@@H]3CCCNC3)c12 [Example 718, (R)-2-fluoro-N-(8-methylisoquinolin-1-yl)-4-((4-(piperazin-1-yl)pyrimidin-2-yl)amino)-N-(piperidin-3-yl)benzamide] | –
14 | 0.13 µM | Cc1nnc(-c2ccc(C(=O)N(c3nccc4cc(Cl)cc(C)c34)[C@@H]3CCCNC3)cc2)o1 [Example 772, (R)—N-(6-chloro-8-methylisoquinolin-1-yl)-4-(5-methyl-1,3,4-oxadiazol-2-yl)-N-(piperidin-3-yl)benzamide] | –
15 | 0.078 µM | Nc1ccc(-c2cc3c(N(C(=O)c4ccc(-n5nnc6cccnc65)cc4F)[C@@H]4CCCNC4)nccc3s2)cn1 [Example 553, N-[2-(6-amino-3-pyridyl)thieno[3,2-c]pyridin-4-yl]-2-fluoro-N-[(3R)-3-piperidyl]-4-(triazolo[4,5-b]pyridin-3-yl)benzamide] | –
16 | > 10 µM | O=C(O)c1ccc(-c2cc3c(N(C(=O)c4ccc(-n5nnc6cccnc65)cc4F)[C@@H]4CCCNC4)nccc3s2)cc1 [Example 379, 4-[4-[[2-fluoro-4-(triazolo[4,5-b]pyridin-3-yl)benzoyl]-[(3R)-3-piperidyl]amino]thieno[3,2-c]pyridin-2-yl]benzoic acid] | –
17 | – | Cc1cccc2ccnc(N(C(=O)N3CCC[C@H](CCC(=O)Nc4ccccc4)C3)[C@@H]3CCCNC3)c12 [Example 344, N-(8-methylisoquinolin-1-yl)-3-(3-oxo-3-(phenylamino)propyl)-N—((R)-piperidin-3-yl) piperidine-1-carboxamide] | IC50 (Homo sapiens, MV4-11, 72 h): 0.93 µM
18 | 0.94 µM | O=C(c1ccc(-n2nnc3cccnc32)cc1F)N(c1nccc2sc(-c3cccc(-c4ncco4)c3)cc12)[C@@H]1CCCNC1 [Example 449, 2-fluoro-N-[2-(3-oxazol-2-ylphenyl)thieno [3,2-c]pyridin-4-yl]-N-[(3R)-3-piperidyl]-4-(triazolo [4,5-b]pyridin-3-yl) benzamide] | –
19 | – | Cn1cc(-c2ccc(C(=O)N(c3nccc4cc(-c5ccccc5)ccc34)[C@@H]3CCCNC3)c(F)c2)nn1 [Example 579, (R)-2-fluoro-4-(1-methyl-1H-1,2,3-triazol-4-yl)-N-(6-phenylisoquinolin-1-yl)-N-(piperidin-3-yl)benzamide] | IC50 [2]: 0.22 µM
20 | 0.77 µM | CC(C)NC(=O)c1ccc(-c2cc3c(N(C(=O)c4ccc(-c5cn(C)nn5)cc4F)[C@@H]4CCCNC4)nccc3s2)cc1 [Example 522, 2-fluoro-N-[2-[4-(isopropylcarbamoyl)phenyl]thieno[3,2-c]pyridin-4-yl]-4-(1-methyltriazol-4-yl)-N-[(3R)-3-piperidyl]benzamide] | –
21 | 0.075 µM | Cc1cccc2ccnc(N(C(=O)c3ccc(Nc4nccc(N5CC(O)C5)n4)cc3F)[C@@H]3CCCNC3)c12 [Example 680, (R)-2-fluoro-4-((4-(3-hydroxyazetidin-1-yl)pyrimidin-2-yl)amino)-N-(8-methylisoquinolin-1-yl)-N-(piperidin-3-yl)benzamide] | –
22 | 0.16 µM | Cc1nnc(-c2ccc(C(=O)N(c3nccc4scc(C)c34)[C@@H]3CCCNC3)cn2)o1 [Example 919, 6-(5-methyl-1,3,4-oxadiazol-2-yl)-N-(3-methylthieno[3,2-c]pyridin-4-yl)-N-[(3R)-3-piperidyl]pyridine-3-carboxamide] | –
23 | 0.63 µM | Cc1nnc(-c2ccc(C(=O)N(c3nccc4cccc(C)c34)[C@@H]3CCCNC3)c(C)c2)s1 [Example 628, (R)-2-methyl-4-(5-methyl-1,3,4-thiadiazol-2-yl)-N-(8-methylisoquinolin-1-yl)-N-(piperidin-3-yl)benzamide] | –
24 | 0.98 µM | Cn1cc(-c2ccc(C(=O)N(c3nccc4sc(-c5cnn(Cc6cccnc6)c5)cc34)[C@@H]3CCCNC3)c(F)c2)nn1 [Example 485, 2-fluoro-4-(1-methyltriazol-4-yl)-N-[(3R)-3-piperidyl]-N-[2-[1-(3-pyridylmethyl)pyrazol-4-yl]thieno [3,2-c]pyridin-4-yl] benzamide] | –
25 | 0.016 µM | Cc1cc(F)cc2ccnc(N(C(=O)c3ccc(-c4cn(C)nn4)cc3)[C@@H]3CCCNC3)c12 [Example 614, (R)—N-(6-fluoro-8-methylisoquinolin-1-yl)-4-(1-methyl-1H-1,2,3-triazol-4-yl)-N-(piperidin-3-yl)benzamide] | –
26 | 0.033 µM | CCCNc1ccnc(Nc2ccc(C(=O)N(c3nccc4cccc(C)c34)[C@@H]3CCCNC3)c(F)c2)n1 [Example 746, (R)-2-fluoro-N-(8-methylisoquinolin-1-yl)-N-(piperidin-3-yl)-4-((4-(propylamino)pyrimidin-2-yl)amino)benzamide] | –
27 | – | C=CCc1ccnc(N(C(=O)c2ccc(Cl)c(CC=C)c2)[C@@H]2CCCNC2)c1 [Example 362, 3-allyl-N-(4-allyl-2-pyridyl)-4-chloro-N-[(3R)-3-piperidyl]benzamide] | IC50 (Homo sapiens, MV4-11, 72 h): 4.3 µM
28 | – | CNC(=O)c1cccc(-c2cc3c(N(C(=O)c4ccc(-c5cn(C)nn5)cc4F)[C@@H]4CCCNC4)nccc3s2)c1 [Example 541, 2-fluoro-N-[2-[3-(methylcarbamoyl)phenyl]thieno[3,2-c]pyridin-4-yl]-4-(1-methyltriazol-4-yl)-N-[(3R)-3-piperidyl] benzamide] | IC50 [2]: 0.64 µM
29 | 0.19 µM | Cc1noc(-c2ccc(C(=O)N(c3nccc4cc(Cl)cc(C)c34)[C@@H]3CCCNC3)cc2)n1 [Example 773, (R)—N-(6-chloro-8-methylisoquinolin-1-yl)-4-(3-methyl-1,2,4-oxadiazol-5-yl)-N-(piperidin-3-yl)benzamide] | –
30 | 0.037 µM | CN(C)C/C=C/C(=O)Nc1cccc(C2CCN(C(=O)N(c3nccc4ccn(C)c34)[C@@H]3CCCNC3)CC2)c1 [Example 304, (R,E)-4-(3-(4-(dimethylamino)but-2-enamido)phenyl)-N-(1-methyl-1H-pyrrolo[2,3-c]pyridin-7-yl)-N-(piperidin-3-yl)piperidine-1-carboxamide] | –
